± gives the expanded uncertainty stated by the source.
Experiment: xn = mol fraction of the nth substance listed
Settings: 293.15 K, 100 kPa, Liquid, Alternating current cell with electrodes

CCCC[N+]1(C)CCCC1.N#CN=C=[N-] [1-butyl-1-methylpyrrolidinium dicyanamide] + O=C1CCCO1
Settings	electrical conductivity [S/m]
Frequency=0.0015 MHz, x1 = 0.3029	2.29 ± 0.023
Frequency=0.0015 MHz, x1 = 0.3845	2.112 ± 0.021
Frequency=0.0015 MHz, x1 = 0.4985	1.84 ± 0.019
Frequency=0.0015 MHz, x1 = 0.6954	1.46 ± 0.015
Frequency=0.0015 MHz, x1 = 0.9013	1.19 ± 0.012
Frequency=0.0015 MHz, x1 = 1	1.123 ± 0.011
Frequency=0.002 MHz, x1 = 0.0463	1.37 ± 0.024
Frequency=0.002 MHz, x1 = 0.0987	2.04 ± 0.025
Frequency=0.002 MHz, x1 = 0.1449	2.31 ± 0.024
Frequency=0.002 MHz, x1 = 0.1859	2.443 ± 0.024
Frequency=0.002 MHz, x1 = 0.2493	2.37 ± 0.024
Frequency=0.002 MHz, x1 = 0.3029	2.29 ± 0.023
Frequency=0.002 MHz, x1 = 0.3845	2.113 ± 0.021
Frequency=0.002 MHz, x1 = 0.4985	1.84 ± 0.019
Frequency=0.002 MHz, x1 = 0.6954	1.46 ± 0.015
Frequency=0.002 MHz, x1 = 0.9013	1.19 ± 0.012
Frequency=0.002 MHz, x1 = 1	1.123 ± 0.011
Frequency=0.0025 MHz, x1 = 0.0463	1.37 ± 0.024
Frequency=0.0025 MHz, x1 = 0.0987	2.04 ± 0.025
Frequency=0.0025 MHz, x1 = 0.1449	2.31 ± 0.024
Frequency=0.0025 MHz, x1 = 0.1859	2.445 ± 0.024
Frequency=0.0025 MHz, x1 = 0.2493	2.37 ± 0.024
Frequency=0.0025 MHz, x1 = 0.3029	2.29 ± 0.023
Frequency=0.0025 MHz, x1 = 0.3845	2.114 ± 0.021
Frequency=0.0025 MHz, x1 = 0.4985	1.84 ± 0.019
Frequency=0.0025 MHz, x1 = 0.6954	1.46 ± 0.015
Frequency=0.0025 MHz, x1 = 0.9013	1.19 ± 0.012
Frequency=0.0025 MHz, x1 = 1	1.123 ± 0.011
Frequency=0.003 MHz, x1 = 0.0463	1.37 ± 0.024
Frequency=0.003 MHz, x1 = 0.0987	2.05 ± 0.025
Frequency=0.003 MHz, x1 = 0.1449	2.31 ± 0.024
Frequency=0.003 MHz, x1 = 0.1859	2.45 ± 0.025
Frequency=0.003 MHz, x1 = 0.2493	2.37 ± 0.024
Frequency=0.003 MHz, x1 = 0.3029	2.29 ± 0.023
Frequency=0.003 MHz, x1 = 0.3845	2.114 ± 0.021
Frequency=0.003 MHz, x1 = 0.4985	1.84 ± 0.019
Frequency=0.003 MHz, x1 = 0.6954	1.46 ± 0.015
Frequency=0.003 MHz, x1 = 0.9013	1.19 ± 0.012
Frequency=0.003 MHz, x1 = 1	1.123 ± 0.011
Frequency=0.00347222 MHz, x1 = 0.0463	1.37 ± 0.024
Frequency=0.00347222 MHz, x1 = 0.0987	2.05 ± 0.025
Frequency=0.00347222 MHz, x1 = 0.1449	2.31 ± 0.024
Frequency=0.00347222 MHz, x1 = 0.1859	2.45 ± 0.025
Frequency=0.00347222 MHz, x1 = 0.2493	2.37 ± 0.024
Frequency=0.00347222 MHz, x1 = 0.3029	2.29 ± 0.023
Frequency=0.00347222 MHz, x1 = 0.3845	2.115 ± 0.021
Frequency=0.00347222 MHz, x1 = 0.4985	1.84 ± 0.019
Frequency=0.00347222 MHz, x1 = 0.6954	1.46 ± 0.015
Frequency=0.00347222 MHz, x1 = 0.9013	1.19 ± 0.012
Frequency=0.00347222 MHz, x1 = 1	1.123 ± 0.011
Frequency=0.004 MHz, x1 = 0.0463	1.37 ± 0.024
Frequency=0.004 MHz, x1 = 0.0987	2.05 ± 0.025
Frequency=0.004 MHz, x1 = 0.1449	2.31 ± 0.024
Frequency=0.004 MHz, x1 = 0.1859	2.45 ± 0.025
Frequency=0.004 MHz, x1 = 0.2493	2.37 ± 0.024
Frequency=0.004 MHz, x1 = 0.3029	2.29 ± 0.023
Frequency=0.004 MHz, x1 = 0.3845	2.115 ± 0.021
Frequency=0.004 MHz, x1 = 0.4985	1.84 ± 0.019
Frequency=0.004 MHz, x1 = 0.6954	1.46 ± 0.015
Frequency=0.004 MHz, x1 = 0.9013	1.19 ± 0.012
Frequency=0.004 MHz, x1 = 1	1.123 ± 0.011
Frequency=0.00446429 MHz, x1 = 0.0463	1.37 ± 0.024
Frequency=0.00446429 MHz, x1 = 0.0987	2.05 ± 0.025
Frequency=0.00446429 MHz, x1 = 0.1449	2.31 ± 0.024
Frequency=0.00446429 MHz, x1 = 0.1859	2.45 ± 0.025
Frequency=0.00446429 MHz, x1 = 0.2493	2.37 ± 0.024
Frequency=0.00446429 MHz, x1 = 0.3029	2.29 ± 0.023
Frequency=0.00446429 MHz, x1 = 0.3845	2.115 ± 0.021
Frequency=0.00446429 MHz, x1 = 0.4985	1.84 ± 0.019
Frequency=0.00446429 MHz, x1 = 0.6954	1.46 ± 0.015
Frequency=0.00446429 MHz, x1 = 0.9013	1.19 ± 0.012
Frequency=0.00446429 MHz, x1 = 1	1.123 ± 0.011
Frequency=0.005 MHz, x1 = 0.0463	1.37 ± 0.024
Frequency=0.005 MHz, x1 = 0.0987	2.05 ± 0.025
Frequency=0.005 MHz, x1 = 0.1449	2.31 ± 0.024
Frequency=0.005 MHz, x1 = 0.1859	2.45 ± 0.025
Frequency=0.005 MHz, x1 = 0.2493	2.37 ± 0.024
Frequency=0.005 MHz, x1 = 0.3029	2.29 ± 0.023
Frequency=0.005 MHz, x1 = 0.3845	2.115 ± 0.021
Frequency=0.005 MHz, x1 = 0.4985	1.84 ± 0.019
Frequency=0.005 MHz, x1 = 0.6954	1.46 ± 0.015
Frequency=0.005 MHz, x1 = 0.9013	1.19 ± 0.012
Frequency=0.005 MHz, x1 = 1	1.123 ± 0.011
Frequency=0.005454 MHz, x1 = 0.0463	1.37 ± 0.024
Frequency=0.005454 MHz, x1 = 0.0987	2.05 ± 0.025
Frequency=0.005454 MHz, x1 = 0.1449	2.31 ± 0.024
Frequency=0.005454 MHz, x1 = 0.1859	2.45 ± 0.025
Frequency=0.005454 MHz, x1 = 0.2493	2.37 ± 0.024
Frequency=0.005454 MHz, x1 = 0.3029	2.29 ± 0.023
Frequency=0.005454 MHz, x1 = 0.3845	2.116 ± 0.021
Frequency=0.005454 MHz, x1 = 0.4985	1.84 ± 0.019
Frequency=0.005454 MHz, x1 = 0.6954	1.46 ± 0.015
Frequency=0.005454 MHz, x1 = 0.9013	1.19 ± 0.012
Frequency=0.005454 MHz, x1 = 1	1.123 ± 0.011
Frequency=0.006 MHz, x1 = 0.0463	1.37 ± 0.024
Frequency=0.006 MHz, x1 = 0.0987	2.05 ± 0.025
Frequency=0.006 MHz, x1 = 0.1449	2.31 ± 0.024
Frequency=0.006 MHz, x1 = 0.1859	2.45 ± 0.025
Frequency=0.006 MHz, x1 = 0.2493	2.37 ± 0.024
Frequency=0.006 MHz, x1 = 0.3029	2.29 ± 0.023
Frequency=0.006 MHz, x1 = 0.3845	2.116 ± 0.021
Frequency=0.006 MHz, x1 = 0.4985	1.84 ± 0.019
Frequency=0.006 MHz, x1 = 0.6954	1.46 ± 0.015
Frequency=0.006 MHz, x1 = 0.9013	1.19 ± 0.012
Frequency=0.006 MHz, x1 = 1	1.123 ± 0.011
Frequency=0.00652174 MHz, x1 = 0.0463	1.37 ± 0.024
Frequency=0.00652174 MHz, x1 = 0.0987	2.05 ± 0.025
